Measurements as given in patent publication US11931327B2, “Drug for retinal degenerative disease associated with photoreceptor degeneration” (Daiichi Sankyo Company, Limited, priority 2017, dated 2024).

Legend:
[1] = target: T1, Human RARα (Homo sapiens, UniProt P10276); test: RAR agonistic activity, luciferase reporter (3xDR5: luc) in HEK293A cells; details: concentration exhibiting luminescence of 1000% of Negative control; 24 hours exposure; N=4
T1 sequence (P10276 1-462): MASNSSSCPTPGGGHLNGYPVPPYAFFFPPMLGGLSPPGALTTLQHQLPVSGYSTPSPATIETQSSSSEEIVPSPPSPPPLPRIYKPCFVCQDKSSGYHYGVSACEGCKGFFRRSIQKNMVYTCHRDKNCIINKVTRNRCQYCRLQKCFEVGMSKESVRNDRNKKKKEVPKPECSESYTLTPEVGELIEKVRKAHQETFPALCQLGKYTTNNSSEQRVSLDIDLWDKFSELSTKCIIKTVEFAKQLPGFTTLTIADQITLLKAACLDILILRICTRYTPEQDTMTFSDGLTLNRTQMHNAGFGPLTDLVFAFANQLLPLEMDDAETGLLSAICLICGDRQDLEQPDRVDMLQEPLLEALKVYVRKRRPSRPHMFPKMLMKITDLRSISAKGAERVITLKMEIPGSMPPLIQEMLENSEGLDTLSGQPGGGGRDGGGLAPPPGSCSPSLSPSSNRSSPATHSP
Method: (§1) RAR agonistic activity was measured in the following procedure.
(§2) 1) HEK293A cells (Invitrogen), which functionally co-express Human RARα, Human RARβ and Human RARγ, were prepared by adding Lipofectamine (registered trademark) 2000 Transfection Reagent (Thermo Fisher Scientific) to an RAR synthetic response element luciferase reporter construct (3xDR5: luc) in accordance with the method described in the manual attached to the kit.
(§3) 3) Twenty-four hours after exposure to a compound, luminescence from the cells was measured by using PICCA JEAN (registered trademark) luminescence kit (TOYO B-Net CO., LTD.) and EnVision (PerkinElmer Corporation, Japan) (N=4).
(§4) In evaluation of RAR agonistic activity, provided that the measurement value (Negative control) of luminescence from the cells with no addition of a compound was determined as 100%, the RAR agonistic activity (%) of a test substance was calculated in accordance with the following expression. The average value thereof was plotted versus the concentration of a test substance. RAR agonistic activity (%)=(measurement value of sample well÷average value of Negative control)×100

[2] = target: T2, Human RARγ (Homo sapiens, UniProt P13631); test: as above; details: concentration exhibiting luminescence of 500% of Negative control; 24 hours exposure; N=4
T2 sequence (P13631 1-454): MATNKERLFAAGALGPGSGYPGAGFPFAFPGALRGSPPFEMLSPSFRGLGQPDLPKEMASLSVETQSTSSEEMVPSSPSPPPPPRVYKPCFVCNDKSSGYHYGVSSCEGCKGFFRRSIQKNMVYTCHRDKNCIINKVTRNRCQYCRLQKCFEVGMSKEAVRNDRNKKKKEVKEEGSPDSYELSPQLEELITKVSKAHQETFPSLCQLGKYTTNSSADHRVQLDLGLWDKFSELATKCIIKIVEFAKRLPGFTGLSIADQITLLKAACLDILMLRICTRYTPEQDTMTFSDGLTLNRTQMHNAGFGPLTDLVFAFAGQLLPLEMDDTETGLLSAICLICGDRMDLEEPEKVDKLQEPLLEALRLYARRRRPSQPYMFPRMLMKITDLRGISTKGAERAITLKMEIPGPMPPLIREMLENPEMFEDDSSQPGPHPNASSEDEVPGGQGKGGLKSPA
Method: as §1, §2, §3, §4

[3] = test system: transgenic zebrafish Tg (rho: NTR-NanoLuc, my17: DsRed2); test: animal or person; details: for EC50: Danio rerio, 48 h, read-out: EC50 of rod-cell regeneration induction (Activation (% of control) 50%); for rod-cell regeneration induction activity: Example 6, various RAR agonists; for rod-cell regeneration induction activity compared to the DMSO control: Examples 3 and 4, TTNPB 0.3, 1, 3, 10 and 30 μM, N=4, RA and BMS493 N=8, Dunnett's test
Source text: First, the present inventors constructed a model for evaluating induction of rod cell regeneration. […] Transgenic zebrafish Tg (rho: NTR-NanoLuc, my17: DsRed2), in which a fluorescent protein, DsRed2, which is cardiac-tissue specifically expressed by cardiomyocyte-specific my17 promoter, can be simply detected by using dsRed2 as a marker under a fluorescence stereomicroscope. In the transgenic zebrafish, in addition to cardiac tissue specific expression of DsRed2, a reductase, i.e., nitroreductase (NTR), and a photoprotein, i.e., NanoLuc fusion protein (NTR-NanoLuc), are expressed by a rod-cell specific rho promoter, in a rod-cell specific manner. […] However, if, a prodrug, metronidazole, is added, non-toxic metronidazole is converted to a toxic radical by NTR. […] After rod cells are ablated by treatment with metronidazole, the transgenic zebrafish were washed with rearing water to remove the toxic radical. […] In the transgenic zebrafish, rod cells can be quantitatively determined by measuring the amount of luminescence derived from rod-cell-specific NanoLuc expression. After the rod cells are ablated, the transgenic zebrafish are exposed to a test compound. The activity of the test compound to induce rod-cell regeneration can be quantitatively evaluated by measuring the amount of luminescence derived from NanoLuc and specific to rod cells.
1) On the day before collection of eggs, a pair of male and female zebrafish, i.e., a transgenic fish Tg (rho: NTR-NanoLuc, my17: DsRed2) and a wild type, were placed in a tank for mating and isolated by a divider.
2) The next morning (8:00-11:00), the divider was removed to allow them to mate with each other. Fertilized eggs were collected. In the evening (16:00-18:00) of the same day, only normally developed fertilized eggs were screened and raised in a plate for growth.
3) Day 3 after fertilization, juvenile fish were transferred to rearing water, which contained 10 mM metronidazole (Sigma-Aldrich, Japan) and 1% DMSO (Wako Pure Chemical Industries Ltd.), (prepared by dissolving 60 mg of instant ocean (Napco Limited (Japan)) in 1 L of distilled water), and raised in dark conditions for 24 hours. In this manner, ablation was specifically applied to the rod cells of the juvenile fish. In contrast, non-ablated juvenile fish, which were to be used as a control, were transferred to a tank containing rearing water, which contained a 1% DMSO solution, and raised.
5) Ablated juvenile fish of 4 days after fertilization were washed well with Egg water and dispensed in wells of the assay plate containing a compound together with 100 μL of Egg water, such that 2 juvenile fish individuals were present per well.
6) After the juvenile fish were raised for 2 days, […] of Egg water was removed and ethyl 3-aminobenzoate methanesulfonate (Sigma-Aldrich Japan; 0.4 mg/mL, 10 μL) was added to euthanize the fish.
7) Nano-Glo (registered trademark) Luciferase assay Substrate (Promega Corporation) was added to Nano-Glo (registered trademark) Luciferase assay buffer (Promega Corporation) in a ratio of 1:50 and 100 μL of the resultant solution was added to each of the wells.
8) Shaking was carried out by use of BIO-Mixer (Biotech Japan Co., Ltd.) for one hour and luminescence of NanoLuc (registered trademark) was measured by use of EnVision (PerkinElmer Co., Ltd., Japan).
Individual concentration groups were compared to the DMSO control group by the Dunnett's test.

[4] = target: T3, Human RARβ (Homo sapiens, UniProt P10826); test: RAR agonistic activity, luciferase reporter (3xDR5: luc) in HEK293A cells; details: concentration exhibiting luminescence of 1000% of Negative control; 24 hours exposure; N=4
T3 sequence (P10826 1-448 isoform P10826-2): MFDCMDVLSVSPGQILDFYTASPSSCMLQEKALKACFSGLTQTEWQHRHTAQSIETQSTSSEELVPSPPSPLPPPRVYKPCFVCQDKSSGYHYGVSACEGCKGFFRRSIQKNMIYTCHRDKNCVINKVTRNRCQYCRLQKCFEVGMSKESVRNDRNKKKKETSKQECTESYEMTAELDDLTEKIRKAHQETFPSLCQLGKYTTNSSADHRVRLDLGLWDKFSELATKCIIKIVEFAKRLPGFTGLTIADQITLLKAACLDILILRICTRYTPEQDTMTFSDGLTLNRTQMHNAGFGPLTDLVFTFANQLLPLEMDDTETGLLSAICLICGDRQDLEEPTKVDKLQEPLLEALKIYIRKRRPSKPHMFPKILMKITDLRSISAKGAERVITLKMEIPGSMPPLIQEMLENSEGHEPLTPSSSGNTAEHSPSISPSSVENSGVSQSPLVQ
Method: as §1, §2, §3, §4

[5] = test system: pathological zebrafish 2: Tg (rho: NTR-NanoLuc, my17: DsRed2) crossed with Tg (rho: hRHO (Q344X), omp: EGFP); test: Rod-cell regeneration effect in retinitis pigmentosa model, quantitative evaluation by NanoLuc luminescence; format: in vivo; details: N=8 per concentration; Dunnett's test; FIG. 7
Method: Pathological model zebrafish, in which rod-cell regeneration can be quantitatively evaluated, were newly prepared using zebrafish known as a retinitis pigmentosa model. The effect of compounds was quantitatively verified in accordance with the following procedure.
1) Quantitative evaluation of rod-cell regeneration was carried out by zebrafish (pathological zebrafish 2) obtained by crossing transgenic Tg (rho: NTR-NanoLuc, my17: DsRed2) and Tg (rho: hRHO (Q344X), omp: EGFP).
Fertilized eggs were collected.
A screening test was repeated 8 times (N=8) at each concentration.
2) After shaking for one hour using BIO-Mixer, the luminescence from NanoLuc (registered trademark) was measured by use of EnVision.

[6] = test system: transgenic zebrafish Tg (rho: NTR-NanoLuc, my17: DsRed2); test: Validation: ablation of rod cells by metronidazole, luminescence derived from rod cells; format: in vivo; details: 10 mM for 24 hours, day 3 after fertilization
Method: Thereafter, rod-cells are gradually regenerated in the zebrafish.
Day 3 after fertilization, the transgenic zebrafish were treated with 10 mM metronidazole (Sigma-Aldrich Japan) for 24 hours and euthanized by adding ethyl 3-aminobenzoate methanesulfonate (Sigma-Aldrich Japan). Luminescence derived from rod cells was measured in accordance with the manual attached to Nano-Glo (registered trademark) Luciferase Assay System (Promega Corporation). […] The resultant transgenic ablated fish were washed with rearing water, and a toxic radical derived from metronidazole was removed. Luminescence derived from the rod cells after 24 and 48 hours was measured. As a result, it was confirmed that rod cells are gradually regenerated over 48 hours (FIG. 3).

Compound | RARα EC1000 [1] | RARγ EC500 [2] | EC50 [3] | RARβ EC1000 [4] | further results
COC(=O)c1ccc(C(=O)Nc2ccc3c(c2)C(C)(C)CCC3(C)C)cc1 [Tamibarotene methyl ester] | 0.91 nM | 72.8 nM | 85.4 nM | 29.1 nM | –
CC1(C)CCC(C)(C)c2cc(NC(=O)c3ccc(C(=O)O)cc3)ccc21 [Tamibarotene] | – | 248 nM | 9.08 nM | 79 nM | rod-cell regeneration induction activity [3]: strong rod-cell regeneration induction activity; regeneration of rod cells in the retinitis pigmentosa model (luminescence, words) [5]: statistically significant regeneration of rod cells in a dose dependent manner
CC1(C)CCC(C)(C)c2cc(Cn3cccn3)c(/C=C/c3ccc(C(=O)O)cc3)cc21 [Palovarotene] | – | – | 1210 nM | – | –
CC1=C(/C=C/C(C)=C/C=C/C(C)=C/C(=O)O)C(C)(C)CCC1 [All-trans Retinoic acid] | – | – | – | – | rod-cell regeneration induction activity compared to the DMSO control [3]: significant rod-cell regeneration induction activity in a concentration-dependent manner
Cc1ncc([N+](=O)[O-])n1CCO [metronidazole] | – | – | – | – | number of rod cells remaining after ablation (luminescence) [6]: 13.5%
CCOC(=O)c1ccc(C(=O)Nc2ccc3c(c2)C(C)(C)CCC3(C)C)cc1 [Tamibarotene ethyl ester] | 21.8 nM | 714 nM | 4.9 nM | 514 nM | rod-cell regeneration induction activity [3]: strong rod-cell regeneration induction activity
CC1(C)CCSc2ccc(C#Cc3ccc(C(=O)O)cn3)cc21 [Tazarotenic acid] | 12 nM | 48 nM | 786 nM | 4.4 nM | –
COc1ccc(-c2ccc3cc(C(=O)O)ccc3c2)cc1C12CC3CC(CC(C3)C1)C2 [Adapalene] | 12 nM | 54 nM | > 1000 nM | 6.9 nM | Activation (% of control) ([3]; at 1000 nM (the maximum concentration evaluated), DMSO = 0%, 1 μM TTNPB = 100%): 39%
4-[(1E)-2-[5,6-dihydro-5,5-dimethyl-8-(2-phenylethynyl)-2naphthalenyl]ethenyl]benzoate [BMS493] | – | – | – | – | precipitation of compound in the assay ([3]; 30 μM): precipitated; toxicity to fish ([3]; 100 μM, cardiac arrest): all fish died; rod-cell regeneration induction activity compared to the DMSO control [3]: did not show rod-cell regeneration induction activity
CCOC(=O)c1ccc(C#Cc2ccc3c(c2)C(C)(C)CCS3)nc1 [Tazarotene] | – | – | 402 nM | – | –
